Measured values as given in publication PMC5220300, “Variant Ionotropic Receptors in the Malaria Vector Mosquito Anopheles gambiae Tuned to Amines and Carboxylic Acids” (Scientific Reports, 2017).

Legend:
Format in all cases: cell-based
AgIR75k [1] = biological target: T1, AgIR75k (Anopheles coluzzii, UniProt A0A6E8VT06); test: two-electrode voltage clamp, Xenopus oocytes, concentration-response
T1 construct: with AgIr8a (co-receptor)
T1 sequence (A0A6E8VT06 26-675): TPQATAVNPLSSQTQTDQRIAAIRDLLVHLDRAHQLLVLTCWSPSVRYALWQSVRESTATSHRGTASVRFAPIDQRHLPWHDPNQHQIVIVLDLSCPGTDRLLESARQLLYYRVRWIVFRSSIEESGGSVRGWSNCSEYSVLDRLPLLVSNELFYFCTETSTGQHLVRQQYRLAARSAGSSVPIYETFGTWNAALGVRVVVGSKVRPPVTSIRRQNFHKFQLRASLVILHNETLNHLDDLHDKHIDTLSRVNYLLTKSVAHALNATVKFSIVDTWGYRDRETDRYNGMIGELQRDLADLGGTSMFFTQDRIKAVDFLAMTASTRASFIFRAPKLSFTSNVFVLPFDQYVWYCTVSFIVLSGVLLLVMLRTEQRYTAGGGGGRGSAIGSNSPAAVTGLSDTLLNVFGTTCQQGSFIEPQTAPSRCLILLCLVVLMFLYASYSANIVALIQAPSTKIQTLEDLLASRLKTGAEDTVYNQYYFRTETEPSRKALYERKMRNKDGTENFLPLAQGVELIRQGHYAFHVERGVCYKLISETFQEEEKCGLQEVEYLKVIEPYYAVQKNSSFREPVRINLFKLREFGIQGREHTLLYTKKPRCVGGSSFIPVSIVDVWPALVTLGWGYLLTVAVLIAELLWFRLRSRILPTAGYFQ
T1 sequence (A0A6E8W0A6 1-828 partner): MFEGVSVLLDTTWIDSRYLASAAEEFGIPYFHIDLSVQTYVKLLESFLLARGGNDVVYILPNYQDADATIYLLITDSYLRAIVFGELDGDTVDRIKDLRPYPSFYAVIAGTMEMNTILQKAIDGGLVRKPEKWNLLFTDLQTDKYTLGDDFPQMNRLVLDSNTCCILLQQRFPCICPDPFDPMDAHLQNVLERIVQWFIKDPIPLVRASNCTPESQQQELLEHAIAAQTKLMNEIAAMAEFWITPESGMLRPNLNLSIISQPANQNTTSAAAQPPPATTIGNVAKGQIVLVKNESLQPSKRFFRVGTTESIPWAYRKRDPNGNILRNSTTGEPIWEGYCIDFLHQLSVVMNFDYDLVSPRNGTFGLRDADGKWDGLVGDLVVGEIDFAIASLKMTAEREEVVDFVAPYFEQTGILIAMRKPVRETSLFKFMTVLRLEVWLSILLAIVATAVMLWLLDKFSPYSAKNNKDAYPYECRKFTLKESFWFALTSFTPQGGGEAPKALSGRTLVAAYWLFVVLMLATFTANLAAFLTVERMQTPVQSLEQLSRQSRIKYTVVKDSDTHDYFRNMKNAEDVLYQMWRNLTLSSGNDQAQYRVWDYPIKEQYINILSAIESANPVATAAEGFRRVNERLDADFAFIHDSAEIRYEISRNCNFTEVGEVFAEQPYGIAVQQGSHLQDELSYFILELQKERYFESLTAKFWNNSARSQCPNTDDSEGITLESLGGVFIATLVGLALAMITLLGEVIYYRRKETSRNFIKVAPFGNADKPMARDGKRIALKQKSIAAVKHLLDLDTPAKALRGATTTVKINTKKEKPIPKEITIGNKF

AgIR41a = biological target: T2, AgIR41a (Anopheles coluzzii, UniProt A0A6E8V5R5); test: as above
T2 construct: with AgIr25a and AgIr76b (co-receptors)
T2 sequence (A0A6E8V5R5 1-637): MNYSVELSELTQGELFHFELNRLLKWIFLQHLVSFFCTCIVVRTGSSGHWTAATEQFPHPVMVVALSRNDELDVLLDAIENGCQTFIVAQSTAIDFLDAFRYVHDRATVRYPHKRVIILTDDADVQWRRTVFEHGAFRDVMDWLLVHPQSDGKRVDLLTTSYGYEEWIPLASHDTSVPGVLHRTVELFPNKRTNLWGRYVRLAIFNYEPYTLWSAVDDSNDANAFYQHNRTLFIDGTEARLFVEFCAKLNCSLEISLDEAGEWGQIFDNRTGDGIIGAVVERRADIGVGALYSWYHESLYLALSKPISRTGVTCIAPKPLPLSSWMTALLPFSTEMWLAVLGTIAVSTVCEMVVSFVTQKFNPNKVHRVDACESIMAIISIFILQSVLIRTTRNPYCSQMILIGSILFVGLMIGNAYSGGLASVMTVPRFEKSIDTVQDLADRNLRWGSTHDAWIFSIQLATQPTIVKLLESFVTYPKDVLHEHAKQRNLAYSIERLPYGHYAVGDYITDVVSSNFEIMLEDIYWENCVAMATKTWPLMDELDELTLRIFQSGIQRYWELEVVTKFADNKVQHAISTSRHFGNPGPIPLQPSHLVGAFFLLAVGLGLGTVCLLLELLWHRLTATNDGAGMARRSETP
T2 sequence (A0A1S4H3H9 28-946 partner): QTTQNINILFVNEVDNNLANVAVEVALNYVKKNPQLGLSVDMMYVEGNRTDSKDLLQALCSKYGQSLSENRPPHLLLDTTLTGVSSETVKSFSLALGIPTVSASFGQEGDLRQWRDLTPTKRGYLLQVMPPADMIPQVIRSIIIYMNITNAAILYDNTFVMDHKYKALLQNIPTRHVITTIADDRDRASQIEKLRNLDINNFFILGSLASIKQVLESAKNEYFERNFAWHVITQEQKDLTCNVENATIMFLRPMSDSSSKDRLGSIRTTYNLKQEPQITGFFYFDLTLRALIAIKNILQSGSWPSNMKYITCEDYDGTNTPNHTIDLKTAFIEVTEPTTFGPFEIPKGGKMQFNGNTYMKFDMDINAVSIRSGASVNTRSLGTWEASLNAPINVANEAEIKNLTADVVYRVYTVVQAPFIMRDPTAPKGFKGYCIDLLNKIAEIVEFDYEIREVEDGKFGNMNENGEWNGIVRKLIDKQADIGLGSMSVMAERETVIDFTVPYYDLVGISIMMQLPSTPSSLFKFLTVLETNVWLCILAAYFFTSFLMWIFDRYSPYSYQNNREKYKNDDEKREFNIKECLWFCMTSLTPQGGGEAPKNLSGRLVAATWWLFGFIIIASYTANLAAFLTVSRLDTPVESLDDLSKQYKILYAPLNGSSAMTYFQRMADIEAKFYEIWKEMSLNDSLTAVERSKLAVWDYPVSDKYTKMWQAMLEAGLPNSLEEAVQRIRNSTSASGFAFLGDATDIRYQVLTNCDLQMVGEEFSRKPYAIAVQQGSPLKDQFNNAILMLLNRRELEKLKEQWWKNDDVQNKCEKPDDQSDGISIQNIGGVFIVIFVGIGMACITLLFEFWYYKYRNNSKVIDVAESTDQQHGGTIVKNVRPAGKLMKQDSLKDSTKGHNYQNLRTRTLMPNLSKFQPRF
T2 sequence (A0A6E8W6Y5 1-657 partner): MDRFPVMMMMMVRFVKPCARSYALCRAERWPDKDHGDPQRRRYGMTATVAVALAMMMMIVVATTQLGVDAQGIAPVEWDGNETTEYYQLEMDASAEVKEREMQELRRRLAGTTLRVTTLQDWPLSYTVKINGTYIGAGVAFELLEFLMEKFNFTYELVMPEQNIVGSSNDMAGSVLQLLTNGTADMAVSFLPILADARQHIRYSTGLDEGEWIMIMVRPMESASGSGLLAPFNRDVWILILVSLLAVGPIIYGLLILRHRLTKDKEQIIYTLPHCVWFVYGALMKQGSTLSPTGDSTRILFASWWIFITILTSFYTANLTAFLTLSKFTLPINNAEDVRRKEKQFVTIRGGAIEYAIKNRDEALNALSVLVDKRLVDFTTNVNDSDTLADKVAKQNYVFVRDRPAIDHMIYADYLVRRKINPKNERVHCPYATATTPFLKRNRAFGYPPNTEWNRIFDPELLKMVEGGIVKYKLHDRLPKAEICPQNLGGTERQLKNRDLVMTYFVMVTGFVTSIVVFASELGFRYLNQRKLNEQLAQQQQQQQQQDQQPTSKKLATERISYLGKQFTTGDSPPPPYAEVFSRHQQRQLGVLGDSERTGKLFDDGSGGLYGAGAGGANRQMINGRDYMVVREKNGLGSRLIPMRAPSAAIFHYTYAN

AgIR41c = biological target: T3, AgIR41c (Anopheles coluzzii, UniProt A0A6E8W7H2); test: as above
T3 construct: with AgIr25a and AgIr76b (co-receptors)
T3 sequence (A0A6E8W7H2 1-669, one chain of several): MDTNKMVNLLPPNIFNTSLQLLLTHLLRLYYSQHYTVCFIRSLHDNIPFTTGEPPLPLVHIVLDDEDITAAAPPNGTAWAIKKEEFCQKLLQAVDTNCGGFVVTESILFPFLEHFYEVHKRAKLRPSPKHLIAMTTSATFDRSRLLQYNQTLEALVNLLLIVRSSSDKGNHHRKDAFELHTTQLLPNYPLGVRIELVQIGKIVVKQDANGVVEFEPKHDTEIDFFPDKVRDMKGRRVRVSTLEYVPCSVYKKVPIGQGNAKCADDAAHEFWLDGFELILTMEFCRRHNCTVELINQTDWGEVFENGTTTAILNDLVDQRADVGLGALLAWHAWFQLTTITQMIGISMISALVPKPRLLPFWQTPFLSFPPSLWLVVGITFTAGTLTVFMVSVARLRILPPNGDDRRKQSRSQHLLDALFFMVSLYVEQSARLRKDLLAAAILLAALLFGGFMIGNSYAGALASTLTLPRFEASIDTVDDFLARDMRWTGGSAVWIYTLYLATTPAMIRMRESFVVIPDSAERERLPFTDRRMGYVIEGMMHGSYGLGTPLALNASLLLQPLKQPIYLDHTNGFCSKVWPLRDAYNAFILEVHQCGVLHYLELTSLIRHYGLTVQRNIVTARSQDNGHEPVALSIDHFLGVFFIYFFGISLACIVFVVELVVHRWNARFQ

AgIR75k [2] = biological target: T1, AgIR75k; test: two-electrode voltage clamp, Xenopus oocytes, […] single concentration

Structure (SMILES): CCCCCCCCC(=O)O [nonanoic acid]
- EC50 (AgIR75k [1]): 35 µM

Structure (SMILES): C1CCNC1 [pyrrolidine]
- EC50 (AgIR41a): 110 µM
- EC50 (AgIR41c): 3.4 µM

Structure (SMILES): CCCCCCCC(=O)O [octanoic acid]
- two-electrode voltage clamp, Xenopus oocytes, 10^-4 M single concentration (AgIR75k [2]): octanoic and nonanoic acids elicited the greatest inward currents
